Our source for the erectile strength values is US20020094988A1, “Method of treating erectile dysfunction” (priority 1999, published 2002).

For the experiment, the system named is person with erectile dysfunction. The experiment is described as follows: Erectile strength rated on a unilinear scale of 1 to 10 in treated patients. It counts as in vivo, human. The source says: Subsequent discontinuation of Pavabid and Trental and placed on Viagra alone.

Structures are written as SMILES. Where a name gives a salt, the structure may show the parent alone.

Consider `CCCc1nn(C)c2c(=O)[nH]c(-c3cc(S(=O)(=O)N4CCN(C)CC4)ccc3OCC)nc12` [Viagra, sildenafil citrate], for which the erectile strength runs as follows: (Example 1: person, rated 3 before treatment) 7; (Example 2: person, rated 2 prior to treatment) 6.
